Consider four molecules from PMC6118295 (CPT: Pharmacometrics & Systems Pharmacology, 2018).

For the experiment, the target named is T1, Recombinant human CES1 (CES1b/CES1A1) (Homo sapiens, UniProt P23141).
T1 sequence (P23141 18-567): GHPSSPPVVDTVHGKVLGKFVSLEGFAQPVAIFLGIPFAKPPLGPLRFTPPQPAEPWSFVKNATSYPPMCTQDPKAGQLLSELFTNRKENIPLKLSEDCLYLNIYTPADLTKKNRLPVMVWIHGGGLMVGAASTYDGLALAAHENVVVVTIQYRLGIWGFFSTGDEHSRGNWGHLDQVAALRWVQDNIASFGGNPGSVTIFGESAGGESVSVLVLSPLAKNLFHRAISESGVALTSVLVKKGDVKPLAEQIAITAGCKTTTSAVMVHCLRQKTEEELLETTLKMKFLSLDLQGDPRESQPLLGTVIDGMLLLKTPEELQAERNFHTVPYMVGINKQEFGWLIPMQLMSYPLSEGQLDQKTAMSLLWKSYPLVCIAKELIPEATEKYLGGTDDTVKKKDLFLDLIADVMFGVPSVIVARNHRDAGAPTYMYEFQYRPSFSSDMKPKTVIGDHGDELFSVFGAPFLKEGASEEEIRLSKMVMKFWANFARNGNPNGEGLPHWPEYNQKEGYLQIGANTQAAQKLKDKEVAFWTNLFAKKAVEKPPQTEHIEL
Briefly: In vitro inhibition of recombinant CES1. It counts as biochemical. Particulars: for IC50 relative to diltiazem: recombinant CES1, fold higher than IC50 of diltiazem.

`C[C@H](CCC(=O)O)[C@H]1CC[C@H]2[C@@H]3[C@H](O)C[C@@H]4C[C@H](O)CC[C@]4(C)[C@H]3CC[C@]12C` [Chenodeoxycholic acid]: the IC50 was 13.5 µM.

With `C[C@H](CCC(=O)NCCS(=O)(=O)O)[C@H]1CC[C@H]2[C@@H]3[C@H](O)C[C@@H]4C[C@H](O)CC[C@]4(C)[C@H]3CC[C@]12C` [Taurochenodeoxycholic acid], the “IC50 relative to diltiazem” value is reported as “more than fourfold higher”.

Take `C[C@H](CCC(=O)NCCS(=O)(=O)O)[C@H]1CC[C@H]2[C@@H]3[C@H](O)C[C@@H]4C[C@H](O)CC[C@]4(C)[C@H]3C[C@H](O)[C@]12C` [Taurocholic acid]: the IC50 was determined as 19.5 µM.

Take `C[C@H](CCC(=O)NCC(=O)O)[C@H]1CC[C@H]2[C@@H]3[C@H](O)C[C@@H]4C[C@H](O)CC[C@]4(C)[C@H]3CC[C@]12C` [Glycochenodeoxycholic acid]: the “IC50 relative to diltiazem” value is approximately 10 fold.
